Experimental data: ChEMBL document CHEMBL1201862, “PubChem BioAssay data set” (2004)
Calls of active or inactive are those of the source.

Experiments:
[1] = biological target: Kallikrein-7 (Homo sapiens, UniProt P49862); test: Fluorescence Intensity-based biochemical primary high throughput dose response assay to identify activators of kallikrein-7 (K7) zymogen.
[2] = HGIII-sPLA2 enzyme inhibition potency – biochemical, QFRET, IC50, dose response (AID 743457);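 further: green fluorescence rise as the enzyme cleaves BODIPY PC-A2 in liposomes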
[3] = cells; type: functional, cell-based
[4] = system: Streptococcus sp. 'group A'; test: Streptococcus pyogenes SK(-)GAS viability under kanamycin – luminescence, BacTiterGlo, confirmation, counter-screen for streptokinase expression inhibitor project, dose response (AID 1900); type: functional, organism-based
[5] = cells; type: functional, cell-based; remark: listed apart in the source
[6] = system: Streptococcus; test: GAS UMAA2166 growth inhibition – luminescence, BacTiterGlo, counter-screen for streptokinase expression inhibitor project, dose response (AID 1915); type: functional, organism-based;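 further: potency for reduction of bacterial viability or growth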
[7] = system: INS1; test: INS-1E survival protection against cytokine death – cell-based, luminescence, retest, dose response (AID 449756); type: functional; details: Rattus norvegicus;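 further: cell death triggered by IL-1 beta plus TNF-alpha plus IFN-gamma mixture; protective hits raise ATP signal compared with cytokine alone wells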
[8] = COV362 cell viability loss – plate reader, dry powder, SA12, cytotoxicity control for PAX8 inhibitor project, dose response (AID 743144); type: functional, cell-based
[9] = COV434 cell viability loss – plate reader, dry powder, SA7, cytotoxicity control for PAX8 inhibitor project, dose response (AID 743145); type: functional, cell-based
[10] = OVCAR4 cell viability loss – plate reader, dry powder, SA11, cytotoxicity control for PAX8 inhibitor project, dose response (AID 743150); type: functional, cell-based; details: OVCAR-4
[11] = biological target: Paired box protein Pax-8 (Homo sapiens, UniProt Q06710); test: PAX8 transcriptional activity inhibition in RMG-I – RMG-I cells, luciferase, cherry-pick, dose response (AID 687027); type: functional, cell-based;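 further: luciferase reporter driven by Pax8 target thyroperoxidase promoter measured by SteadyGlo luminescence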
[12] = OV-90 cell viability loss – plate reader, dry powder, SA8, PAX8 inhibitor project, dose response (AID 743149); type: functional, cell-based
[13] = biological target: Endoplasmic reticulum aminopeptidase 1 (Homo sapiens, UniProt Q9NZ08); test: inhibition of human ERAP1 enzyme activity – biochemical, cherry-pick, set 2, plate reader, dose response (AID 743314)
[14] = biological target: Tyrosyl-DNA phosphodiesterase 2 (Homo sapiens, UniProt O95551); test: potency against TDP2 phosphodiesterase activity – biochemical, epi absorbance, IC50, dose response (AID 743297)
[15] = blockers of bursicon-stimulated LGR2 cAMP reporter – cell-based, HEK293, CRE-luciferase reporter, cherry pick, set 2, dose response (AID 743343); type: functional;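 further: transfected cells were stimulated with diluted bursicon conditioned medium after compound addition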
[16] = viability loss in HEK293 cells – cell-based, plate reader, cherry-picked samples, cytotoxicity control, dose response (AID 743446); type: functional
[17] = A549 cell cytotoxicity, dose response, cytotoxicity control, plate reader, cherry-pick, antagonist series (AID 743412); type: functional, cell-based
[18] = toxicity toward HepG2 liver cells – cell-based, plate reader, cherry-pick, antagonist series, cytotoxicity control, dose response (AID 743416); type: functional
[19] = blockade of melanocortin 4 receptor signaling – cell-based, plate reader, cherry pick, counter-screen for LGR2 antagonist project, dose response (AID 743444); type: functional;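 further: transfected HEK 293 cells stimulated with alpha-MSH peptide; potency of inhibitors of the alpha-MSH evoked signal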
[20] = CMV-driven luciferase expression suppression in HEK293 – cell-based, luminescence, dry powder, counter-screen for Pax8 inhibitor project, dose response (AID 743020); type: functional
[21] = IGROV1 cell killing – plate reader, dry powder samples, PAX8 inhibitor project, dose response (AID 743043); type: functional, cell-based; details: IGROV-1
[22] = general cell-killing toxicity readout – plate reader, dry powder samples, cytotoxicity control for PAX8 inhibitor project, dose response (AID 743021); type: functional, cell-based
[23] = A2780 cell killing – plate reader, dry powder samples, cytotoxicity control, dose response (AID 743046); type: functional, cell-based
[24] = OVCAR-3 cell viability loss – plate reader, dry powder samples, PAX8 inhibitor project, dose response (AID 743044); type: functional, cell-based
[25] = toxicity toward immortalized ovarian surface epithelium – cell-based, plate reader, dry powder samples, cytotoxicity control for PAX8 inhibitor project, dose response (AID 743045); type: functional
[26] = OVCAR8 cell viability loss – plate reader, dry powder samples, PAX8 project, dose response (AID 743197); type: functional, cell-based; details: OVCAR-8
[27] = biological target: T1, Probable nicotinate-nucleotide adenylyltransferase (Staphylococcus aureus (strain N315), UniProt P65502); type: functional, Staphylococcus aureus subsp. aureus N315; details: read-out: IC50_Mean;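 on IC50 Mean: confirmatory dose-response retesting of NadD inhibitor hits first found in an ultra-high-throughput screen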
[28] = biological target: T2, Sentrin-specific protease 8 (Homo sapiens, UniProt Q96LD8); type: functional;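 further: luminescence read-out of SENP8 inhibition, dose-response confirmation following an ultra-high-throughput screen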
T2 sequence (Q96LD8 whole entry): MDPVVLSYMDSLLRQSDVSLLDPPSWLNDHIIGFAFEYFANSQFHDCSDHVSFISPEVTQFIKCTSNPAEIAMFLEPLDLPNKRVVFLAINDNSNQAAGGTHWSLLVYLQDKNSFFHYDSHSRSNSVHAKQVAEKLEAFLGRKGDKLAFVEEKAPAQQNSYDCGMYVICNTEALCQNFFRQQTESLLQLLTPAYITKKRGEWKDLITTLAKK

[29] = general mammalian cell viability loss – inhibitor set, cherry-pick, set 2, cytotoxicity control for miR-122 modulator project, dose response (AID 720697); type: functional, cell-based
[30] = biological target: T3, Sentrin-specific protease 6 (Homo sapiens, UniProt Q9GZR1); type: functional;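 further: Luminescence-based dose-response confirmatory assay of SENP6 inhibition, following up an ultra-high-throughput screen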
T3 sequence (Q9GZR1 whole entry): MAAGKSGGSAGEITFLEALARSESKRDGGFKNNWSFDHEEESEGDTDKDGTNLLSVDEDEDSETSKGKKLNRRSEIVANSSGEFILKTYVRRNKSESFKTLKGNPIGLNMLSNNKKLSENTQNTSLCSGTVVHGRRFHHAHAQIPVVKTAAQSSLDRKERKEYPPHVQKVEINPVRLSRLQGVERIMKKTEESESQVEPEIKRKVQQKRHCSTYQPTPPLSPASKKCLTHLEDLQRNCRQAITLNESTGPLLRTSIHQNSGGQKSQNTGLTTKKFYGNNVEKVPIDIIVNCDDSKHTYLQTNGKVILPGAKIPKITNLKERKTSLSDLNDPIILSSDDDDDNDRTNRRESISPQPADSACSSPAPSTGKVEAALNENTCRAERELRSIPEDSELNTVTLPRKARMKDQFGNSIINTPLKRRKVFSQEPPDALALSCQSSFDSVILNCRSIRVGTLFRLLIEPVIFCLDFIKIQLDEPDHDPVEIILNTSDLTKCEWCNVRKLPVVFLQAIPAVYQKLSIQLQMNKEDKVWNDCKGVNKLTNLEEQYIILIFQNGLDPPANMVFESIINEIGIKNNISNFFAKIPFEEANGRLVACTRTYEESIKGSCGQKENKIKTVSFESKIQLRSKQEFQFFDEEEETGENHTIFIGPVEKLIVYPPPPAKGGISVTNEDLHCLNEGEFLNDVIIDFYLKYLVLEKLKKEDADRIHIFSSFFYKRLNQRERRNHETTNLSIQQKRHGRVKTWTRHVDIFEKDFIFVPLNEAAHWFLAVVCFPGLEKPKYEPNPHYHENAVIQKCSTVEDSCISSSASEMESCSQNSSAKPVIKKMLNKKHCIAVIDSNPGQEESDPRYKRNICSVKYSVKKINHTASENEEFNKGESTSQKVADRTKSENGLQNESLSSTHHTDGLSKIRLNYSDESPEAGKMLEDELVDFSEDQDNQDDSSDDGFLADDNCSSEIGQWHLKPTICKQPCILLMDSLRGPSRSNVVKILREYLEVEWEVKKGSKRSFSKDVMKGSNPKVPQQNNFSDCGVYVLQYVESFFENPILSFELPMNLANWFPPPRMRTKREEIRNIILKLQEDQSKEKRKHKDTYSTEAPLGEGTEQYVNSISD

[31] = biological target: T1, Probable nicotinate-nucleotide adenylyltransferase; type: functional, Staphylococcus aureus subsp. aureus N315
[32] = Luminescence Cell-Based Dose Confirmation HTS to Identify Inhibitors of Platelet Dense Granule Release. [Related pubchem assays: 1663 (Primary HTS), 1678 (Summary of Project)]; type: functional
[33] = biological target: Luciferin 4-monooxygenase (Photinus pyralis, UniProt P08659); test: inhibition of purified Photinus pyralis luciferase – biochemical, luminescence, dose response (AID 1891)
[34] = biological target: T4, Caspase-3 (Homo sapiens, UniProt P42574); type: functional;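 further: Dose-response selectivity test against caspase-3 for candidate inhibitors of sentrin-specific proteases (SENPs)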
T4 sequence (P42574 whole entry): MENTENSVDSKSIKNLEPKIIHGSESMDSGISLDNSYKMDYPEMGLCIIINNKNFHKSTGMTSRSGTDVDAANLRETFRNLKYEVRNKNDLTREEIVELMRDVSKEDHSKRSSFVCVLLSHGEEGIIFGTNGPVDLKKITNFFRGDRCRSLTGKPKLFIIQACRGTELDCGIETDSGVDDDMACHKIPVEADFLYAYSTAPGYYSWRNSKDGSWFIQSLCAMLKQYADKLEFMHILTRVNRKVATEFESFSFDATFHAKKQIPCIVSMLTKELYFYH

[35] = biological target: T5, Sentrin-specific protease 7 (Homo sapiens, UniProt Q9BQF6); type: functional;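 further: Luminescence-based dose-response confirmation of ultra-high-throughput screening hits, measuring inhibition of SENP7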
T5 sequence (Q9BQF6 whole entry): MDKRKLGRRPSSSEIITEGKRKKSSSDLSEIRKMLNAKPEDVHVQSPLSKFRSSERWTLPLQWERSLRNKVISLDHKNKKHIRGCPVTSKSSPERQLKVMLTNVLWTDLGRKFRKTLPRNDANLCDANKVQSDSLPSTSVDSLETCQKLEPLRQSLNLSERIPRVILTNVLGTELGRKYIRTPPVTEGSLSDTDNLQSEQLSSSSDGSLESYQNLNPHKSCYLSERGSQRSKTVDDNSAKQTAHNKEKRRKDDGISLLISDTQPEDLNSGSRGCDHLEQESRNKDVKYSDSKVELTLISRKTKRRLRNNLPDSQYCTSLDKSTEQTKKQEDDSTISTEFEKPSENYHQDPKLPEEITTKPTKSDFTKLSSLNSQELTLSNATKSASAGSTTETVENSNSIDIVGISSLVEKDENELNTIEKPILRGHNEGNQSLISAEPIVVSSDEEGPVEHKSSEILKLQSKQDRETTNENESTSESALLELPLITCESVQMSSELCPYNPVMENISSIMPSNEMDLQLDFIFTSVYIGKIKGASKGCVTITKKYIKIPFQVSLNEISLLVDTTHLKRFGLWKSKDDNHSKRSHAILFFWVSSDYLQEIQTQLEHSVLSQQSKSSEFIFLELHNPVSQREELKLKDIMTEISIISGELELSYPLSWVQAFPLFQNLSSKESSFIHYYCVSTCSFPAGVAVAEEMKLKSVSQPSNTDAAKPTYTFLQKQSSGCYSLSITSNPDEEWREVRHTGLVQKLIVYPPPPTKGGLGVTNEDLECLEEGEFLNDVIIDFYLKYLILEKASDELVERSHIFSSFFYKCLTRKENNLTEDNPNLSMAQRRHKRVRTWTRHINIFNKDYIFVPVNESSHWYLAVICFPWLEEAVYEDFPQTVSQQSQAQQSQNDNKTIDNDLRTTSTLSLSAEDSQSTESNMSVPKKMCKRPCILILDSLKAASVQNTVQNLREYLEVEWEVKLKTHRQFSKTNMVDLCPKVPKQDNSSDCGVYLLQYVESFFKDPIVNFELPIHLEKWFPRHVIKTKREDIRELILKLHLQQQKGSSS

Sequence of Paired box protein Pax-8 (Q06710 whole entry): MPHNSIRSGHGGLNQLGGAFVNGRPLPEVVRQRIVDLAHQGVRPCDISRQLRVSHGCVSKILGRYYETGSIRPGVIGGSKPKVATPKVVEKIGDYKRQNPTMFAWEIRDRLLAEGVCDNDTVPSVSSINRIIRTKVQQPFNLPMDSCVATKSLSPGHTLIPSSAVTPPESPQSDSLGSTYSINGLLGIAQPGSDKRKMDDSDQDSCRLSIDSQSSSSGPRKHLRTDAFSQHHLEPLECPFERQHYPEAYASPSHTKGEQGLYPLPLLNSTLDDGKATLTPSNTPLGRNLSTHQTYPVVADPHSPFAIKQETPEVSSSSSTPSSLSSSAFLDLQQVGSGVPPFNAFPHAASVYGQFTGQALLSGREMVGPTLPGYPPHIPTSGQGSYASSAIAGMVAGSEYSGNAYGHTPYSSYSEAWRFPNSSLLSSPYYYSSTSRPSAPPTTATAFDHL
Sequence of Endoplasmic reticulum aminopeptidase 1 (Q9NZ08 whole entry): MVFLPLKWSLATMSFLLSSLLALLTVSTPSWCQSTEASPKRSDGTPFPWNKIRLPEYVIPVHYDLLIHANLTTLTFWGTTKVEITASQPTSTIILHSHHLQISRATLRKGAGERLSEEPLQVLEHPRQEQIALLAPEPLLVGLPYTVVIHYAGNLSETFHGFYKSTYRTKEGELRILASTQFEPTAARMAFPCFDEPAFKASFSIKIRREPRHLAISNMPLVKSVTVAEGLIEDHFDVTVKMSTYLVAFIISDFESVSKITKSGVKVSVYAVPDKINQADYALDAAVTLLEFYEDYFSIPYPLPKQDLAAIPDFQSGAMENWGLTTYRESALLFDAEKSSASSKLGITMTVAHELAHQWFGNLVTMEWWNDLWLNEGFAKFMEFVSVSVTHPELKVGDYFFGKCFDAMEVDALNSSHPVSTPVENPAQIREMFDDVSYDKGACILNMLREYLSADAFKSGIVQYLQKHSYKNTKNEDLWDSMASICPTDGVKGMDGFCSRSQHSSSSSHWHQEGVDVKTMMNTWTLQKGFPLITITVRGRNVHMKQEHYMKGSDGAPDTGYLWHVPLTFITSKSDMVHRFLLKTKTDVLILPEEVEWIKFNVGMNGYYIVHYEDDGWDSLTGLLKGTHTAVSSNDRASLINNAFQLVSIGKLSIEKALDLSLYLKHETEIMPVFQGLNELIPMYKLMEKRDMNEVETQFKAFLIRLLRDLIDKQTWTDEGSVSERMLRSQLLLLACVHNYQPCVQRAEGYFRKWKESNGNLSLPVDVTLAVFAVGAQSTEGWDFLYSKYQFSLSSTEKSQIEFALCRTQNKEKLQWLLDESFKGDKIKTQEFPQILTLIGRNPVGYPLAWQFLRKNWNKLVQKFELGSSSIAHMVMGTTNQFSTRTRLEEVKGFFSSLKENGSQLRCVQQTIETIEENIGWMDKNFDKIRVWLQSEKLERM
T1 sequence (P65502 whole entry): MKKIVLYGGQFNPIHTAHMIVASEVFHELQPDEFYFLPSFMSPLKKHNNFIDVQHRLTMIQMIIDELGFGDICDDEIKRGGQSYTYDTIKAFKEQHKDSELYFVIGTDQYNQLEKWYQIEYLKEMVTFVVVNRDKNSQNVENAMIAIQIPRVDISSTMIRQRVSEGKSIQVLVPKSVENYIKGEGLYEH
Sequence of Luciferin 4-monooxygenase (P08659 whole entry): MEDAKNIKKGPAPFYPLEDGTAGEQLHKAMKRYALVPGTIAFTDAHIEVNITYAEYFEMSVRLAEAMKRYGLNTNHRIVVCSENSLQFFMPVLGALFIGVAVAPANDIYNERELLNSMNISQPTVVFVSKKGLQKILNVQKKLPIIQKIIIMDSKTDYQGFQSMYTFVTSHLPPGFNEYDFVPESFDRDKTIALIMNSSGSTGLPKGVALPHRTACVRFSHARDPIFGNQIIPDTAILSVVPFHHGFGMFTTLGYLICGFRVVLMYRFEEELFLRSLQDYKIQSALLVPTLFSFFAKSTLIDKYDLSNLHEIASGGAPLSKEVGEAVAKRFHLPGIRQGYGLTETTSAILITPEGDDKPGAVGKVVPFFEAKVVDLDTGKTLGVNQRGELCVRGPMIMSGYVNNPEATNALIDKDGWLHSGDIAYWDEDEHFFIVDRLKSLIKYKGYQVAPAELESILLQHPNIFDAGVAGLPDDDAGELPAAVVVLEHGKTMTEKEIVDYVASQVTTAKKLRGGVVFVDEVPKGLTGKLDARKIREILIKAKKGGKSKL
Sequence of Kallikrein-7 (P49862 whole entry): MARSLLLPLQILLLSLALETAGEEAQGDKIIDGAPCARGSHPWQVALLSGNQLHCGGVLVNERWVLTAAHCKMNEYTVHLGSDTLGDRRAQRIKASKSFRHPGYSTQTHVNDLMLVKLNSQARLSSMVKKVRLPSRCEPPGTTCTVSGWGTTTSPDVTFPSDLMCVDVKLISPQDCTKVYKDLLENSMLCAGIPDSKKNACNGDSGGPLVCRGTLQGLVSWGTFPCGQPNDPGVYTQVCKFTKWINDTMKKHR
Sequence of Tyrosyl-DNA phosphodiesterase 2 (O95551 whole entry): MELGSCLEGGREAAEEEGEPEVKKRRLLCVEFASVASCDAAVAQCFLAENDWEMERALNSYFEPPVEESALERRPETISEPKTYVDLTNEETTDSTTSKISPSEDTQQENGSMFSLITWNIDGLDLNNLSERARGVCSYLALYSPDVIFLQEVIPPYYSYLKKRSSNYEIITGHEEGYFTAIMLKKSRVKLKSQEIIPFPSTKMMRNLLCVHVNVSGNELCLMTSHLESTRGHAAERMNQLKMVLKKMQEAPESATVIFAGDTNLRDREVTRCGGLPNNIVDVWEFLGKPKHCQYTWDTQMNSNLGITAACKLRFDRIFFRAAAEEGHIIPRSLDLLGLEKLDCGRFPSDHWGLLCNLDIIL

COc1cc2ccccc2cc1C(=O)OCC(=O)N1CCOCC1
inactive: EC50 [1] > 69.5 µM

Cc1ccn2c(Nc3ccccc3C)c(-c3ccccn3)nc2c1
inactive: IC50 [2] 67.9 µM
active: EC50 [4] 2.75 µM | EC50 [5] 146 µM | EC50 [6] 6.24 µM | AC50 [7] 5.32 µM
> 350 µM (not active): EC50 [3]

Cc1cccc(N=C(S)NNC(=O)c2ccc(O)cc2O)c1C
inactive: IC50 [2] > 122 µM

CN1CC(=O)N2C(c3ccc(Cl)cc3)c3[nH]c4ccccc4c3C[C@H]2C1=O (stereo not given in full)
active: AC50 [8] 9.73 µM | AC50 [9] 21.4 µM | AC50 [10] 10.3 µM | AC50 [11] 10.3 µM
inactive: AC50 [12] > 100 µM

Cc1cc(=O)oc2c(CN3CCCC3)c(O)c(Cl)cc12
active: AC50 [13] 5.76 µM

Nc1c2c(O)nc(O)cc2nn1-c1ccccc1
inactive: IC50 [14] 79.9 µM

O=C(C[C@H]1C[C@@H]2c3cc(NS(=O)(=O)c4ccc(F)cc4)ccc3O[C@@H]2[C@@H](CO)O1)NCc1ccc(Oc2ccccc2)cc1
active: AC50 [15] 26 µM | AC50 [16] 22.3 µM | AC50 [17] 19.3 µM | AC50 [18] 20.9 µM | AC50 [11] 8.32 µM | AC50 [19] 25.6 µM | AC50 [20] 40.6 µM

C[C@@H]1CN([C@H](C)CO)C(=O)c2cc(NS(=O)(=O)c3ccc(Cl)cc3)ccc2O[C@@H](C)CCCCO[C@H]1CN(C)Cc1ccc(C(F)(F)F)cc1
active: AC50 [21] 21.3 µM | AC50 [22] 3.68 µM | AC50 [23] 10.8 µM | AC50 [24] 10.6 µM | AC50 [25] 20.2 µM | AC50 [26] 21.6 µM | AC50 [11] 6.62 µM | AC50 [20] 31.8 µM

CCC(=O)N(C)C[C@H]1Oc2ncc(C#Cc3ccncc3)cc2C(=O)N([C@H](C)CO)C[C@H]1C
active: AC50 [13] 2.92 µM

COc1cccc(OCc2cc(/C=N/Nc3ccc(C(=O)O)cc3)ccc2OC)c1
active: IC50 [27] 25.5 µM | IC50 [28] 15.7 µM | AC50 [29] 7.48 µM | IC50 [30] 6.91 µM | IC50 [31] 7.37 µM | EC50 [32] 84.7 µM | EC50 [33] 4.64 µM | IC50 [34] 22.4 µM | IC50 [35] 8.85 µM
